According to ChEMBL document CHEMBL1137316, “Discovery of S-(2-guanidylethyl)-isothiourea (VUF 8430) as a potent nonimidazole histamine H4 receptor agonist” (J Med Chem, 2006):
Each block holds one molecule with its values, some of them ahead of it. The source made the active and inactive calls. No cut-off for these calls is given here.

Experiments:
Histamine H4 receptor = Histamine H4 receptor (Homo sapiens, UniProt Q9H3N8); assay: Displacement of [3H]histamine from human histamine H4 receptor
[1] = molecular target: Histamine H2 receptor (Cavia porcellus) (UniProt P47747); assay: Activity at human histamine H2 receptor in guinea pig right atrium; type: functional, tissue-based; details: Cardiac atrium
Histamine H3 receptor [2] = molecular target: T1, Histamine H3 receptor (Homo sapiens, UniProt Q9Y5N1); assay: Displacement of [3H]Nalpha-methylhistamine from human histamine H3 receptor expressed in SK-N-MC cells; type: cell-based
[3] = molecular target: Histamine H2 receptor (Homo sapiens) (UniProt P25021); assay: Agonist activity at human histamine H2 receptor; type: functional
[4] = molecular target: Histamine H1 receptor (Homo sapiens) (UniProt P35367); assay: Agonist activity at human histamine H1 receptor at 100 uM; type: functional
Histamine H3 receptor [5] = molecular target: T1, Histamine H3 receptor; assay: Agonist activity at human histamine H3 receptor in SK-N-MC cells assessed as inhibition of forskolin-induced cAMP-mediated CRE-beta galactosidase activity; type: functional, cell-based

T1 sequence (Q9Y5N1 whole entry): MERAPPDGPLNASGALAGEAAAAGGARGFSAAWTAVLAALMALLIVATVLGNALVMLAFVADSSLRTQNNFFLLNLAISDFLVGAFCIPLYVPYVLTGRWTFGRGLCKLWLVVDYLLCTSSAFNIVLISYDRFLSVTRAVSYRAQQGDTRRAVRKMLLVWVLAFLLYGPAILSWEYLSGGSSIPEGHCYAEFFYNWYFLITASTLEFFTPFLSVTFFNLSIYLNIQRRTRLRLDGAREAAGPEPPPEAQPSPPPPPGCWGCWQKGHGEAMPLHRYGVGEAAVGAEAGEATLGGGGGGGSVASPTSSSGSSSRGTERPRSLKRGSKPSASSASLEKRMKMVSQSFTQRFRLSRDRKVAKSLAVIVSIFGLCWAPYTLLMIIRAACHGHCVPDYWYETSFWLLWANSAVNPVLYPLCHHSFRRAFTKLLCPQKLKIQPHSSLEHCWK
Histamine H2 receptor (Cavia porcellus), sequence (P47747 whole entry): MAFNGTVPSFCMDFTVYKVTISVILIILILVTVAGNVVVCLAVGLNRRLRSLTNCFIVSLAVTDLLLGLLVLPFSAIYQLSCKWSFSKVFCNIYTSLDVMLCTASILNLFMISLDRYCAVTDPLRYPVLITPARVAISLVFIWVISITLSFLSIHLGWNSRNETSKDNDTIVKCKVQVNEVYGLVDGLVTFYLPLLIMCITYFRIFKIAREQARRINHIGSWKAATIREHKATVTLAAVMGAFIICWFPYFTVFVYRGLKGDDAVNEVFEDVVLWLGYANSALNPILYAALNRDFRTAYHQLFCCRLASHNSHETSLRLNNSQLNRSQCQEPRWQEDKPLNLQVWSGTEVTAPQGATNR
Histamine H2 receptor (Homo sapiens), sequence (P25021 whole entry): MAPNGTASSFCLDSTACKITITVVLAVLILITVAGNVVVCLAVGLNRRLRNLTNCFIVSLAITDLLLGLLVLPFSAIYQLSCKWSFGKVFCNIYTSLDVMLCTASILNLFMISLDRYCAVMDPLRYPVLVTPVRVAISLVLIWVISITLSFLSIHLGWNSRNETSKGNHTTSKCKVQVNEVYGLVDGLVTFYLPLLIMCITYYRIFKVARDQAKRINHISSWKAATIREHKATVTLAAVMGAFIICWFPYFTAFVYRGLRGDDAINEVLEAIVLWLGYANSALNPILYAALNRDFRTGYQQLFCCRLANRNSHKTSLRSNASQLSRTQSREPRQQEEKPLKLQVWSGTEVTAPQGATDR
Histamine H1 receptor (Homo sapiens), sequence (P35367 whole entry): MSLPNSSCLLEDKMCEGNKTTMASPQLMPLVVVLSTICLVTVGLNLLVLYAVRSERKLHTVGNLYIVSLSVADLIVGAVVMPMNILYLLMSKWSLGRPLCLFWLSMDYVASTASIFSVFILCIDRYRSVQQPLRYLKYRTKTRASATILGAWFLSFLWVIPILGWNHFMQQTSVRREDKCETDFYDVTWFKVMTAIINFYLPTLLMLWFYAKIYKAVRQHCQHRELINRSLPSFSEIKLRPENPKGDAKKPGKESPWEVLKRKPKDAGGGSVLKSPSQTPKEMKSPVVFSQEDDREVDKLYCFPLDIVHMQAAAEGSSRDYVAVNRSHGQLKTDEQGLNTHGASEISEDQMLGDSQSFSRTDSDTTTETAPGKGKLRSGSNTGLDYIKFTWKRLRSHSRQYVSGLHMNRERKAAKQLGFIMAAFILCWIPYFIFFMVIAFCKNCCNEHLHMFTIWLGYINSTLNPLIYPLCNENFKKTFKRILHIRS

Ki (Histamine H4 receptor): 3.98 µM
SMILES: N=C(N)NCCCCCCSC(=N)N

Ki (Histamine H4 receptor): 7.94 µM
SMILES: N=C(N)NCCCSC(=N)N

Intrinsic activity [1]: 0.4 | pD2 [1]: 3.8 | Ki (Histamine H3 receptor [2]): 1 µM | Activity [3]: 50% | Activity [4]: inactive | Intrinsic activity (Histamine H3 receptor [5]): 1
SMILES: N=C(N)NCCSC(=N)N

Continued, molecule first:

SMILES: N=C(N)NCCNC(=N)N
Ki (Histamine H4 receptor): 0.398 µM

SMILES: N=C(N)NCCCCSC(=N)N
Ki (Histamine H4 receptor): 3.16 µM

SMILES: N=C(N)SCCSC(=N)N
Ki (Histamine H4 receptor): 0.251 µM
